Measured values reported in US20240207422A1, “NERVE TARGETING PEPTIDE CONJUGATES AND METHODS OF USE” (Alume Biosciences, Inc., priority 2022, published 2024).

Tested on: excised human nerve tissue
Experiment: Phage display selection on excised human nerve tissue (Nerve2, Nerve3), NextGen sequence counts
Assay type: binding
Settings: unique sequence count (relative enrichment); peptides common to Nerve2, Nerve3 and Plated Nerve 2 sets
Description: Several m13 phage libraries were constructed expressing randomized variants of a parent peptide (QVPWEEPYYVVKKS-SGGL; SEQ ID NO: 576). In particular, the first 14 amino acids of the parent peptide were randomized using degenerate oligonucleotide synthesis to obtain a diverse set of peptides with a mutation rate of about 50% per residue.
To accomplish this, synthesis was carried out by the XXK codon design approach, where X is any base and K is G or T. To bias synthesis towards the parent sequence, synthesis was carried out at each X position with a mixture of about 70%-85% of the parent nucleotide and 15-30% of the remaining 3 nucleotides. The resulting molecules were inserted into fADL-1e (Antibody Design Laboratories), which is a type 3 phage display vector having a cloning site on the N-terminal side of the full-length gene III protein. The fusion proteins are directed to the periplasm by the PelB leader peptide, which is inserted in the vector […].
Collectively, the phage display libraries used in the screens comprised about 600 million peptides, with sequencing analysis confirming a mutation rate of about 50% per residue.
Phage libraries were independently processed, as follows, with five biological samples: two independent samples of excised human nerve tissue, one sample of a human nerve extract, and two independent samples of human muscle tissue, as follows:
Excised Human Nerve Tissue: For each of the two independent samples, phage were processed through multiple cycles of selection, with representative phage being isolated and sequenced after each selection cycle. Specifically, for selection using human nerve tissue, a sample of […] tissue (2 mm by 2 mm) was washed prior to mixing and incubation with a phage library. After incubation, the mixture (containing mostly intact nerves with phage particles that had variable affinity for nerves) was centrifuged and the nerve pellet washed multiple times with PBS to remove phage with little or no affinity for nerve tissue. The pellet was homogenized and plated for titering and reamplification. Phage that were bound at each round were sequenced. NextGen sequencing of pools after 2, 3 and 4 rounds of selection were used to isolate candidate sequences that were further analyzed using bioinformatics.
NextGen sequencing of pools after 2, 3 and 4 rounds of selection were used to isolate candidate sequences from each of the five samples. These five data sets were then analyzed as described in the next section.
Peptide and vector sequences were translated starting at the first start codon in the nucleotide sequence. […] Trimmed peptides with identical sequences were combined and quantified according to their frequency (count).
Following processing, an R script was written to merge the unique peptide sequences (with counts 6 or greater) from the 5 different data sets to analyze the overlap between nerve and muscle binding activity.
For the single Nerve2, Nerve3, and Plated Nerve2 (pn2) subsets, the number of counts for each group was set at a threshold giving rise to at least 100 peptides. […] As highlighted in yellow in FIG. 1B, the representative group also included 6 unique peptides overlapping between nerve2 and nerve3, 200 unique peptides overlapping between nerve2 and plated nerve2 (at least 60 counts), 4 unique peptides overlapping between nerve3 and plated nerve2. Finally, as highlighted in green in FIG. 1B, the representative group also included […] common to the nerve2, nerve3, and plated nerve2 sets.

Row | Substance | Count
1 | 1 (TIPYAEPYYVVRKY) [compound 1] | 711
2 | 2 (DFTMQEPYYAEKKT) [compound 2] | 593
3 | 3 (HVTWQEQYYVLKTP) [compound 3] | 371
4 | 4 (HVPGVDPYSVVKKF) [compound 4] | 368
5 | 5 (HVAFEQPDNVLVLY) [compound 5] | 357
6 | 6 (QVPTEVQFYLVKEP) [compound 6] | 337
7 | 7 (QLPSEQPCCVVKKY) [compound 7] | 329
8 | 8 (QDPWVTRYYIVKKS) [compound 8] | 304
9 | 9 (QVPAKEPYNFMKKS) [compound 9] | 299
10 | 10 (YLTWEEPEHVNKQS) [compound 10] | 272
11 | 11 (QVPRQELYYVSHQF) [compound 11] | 245
12 | 12 (QHPFEQSFYVVNKF) [compound 12] | 227
13 | 13 (DILLDELRFAEKHG) [compound 13] | 203
14 | 14 (YNLWDAPSYLVKNS) [compound 14] | 201
15 | 15 (HVAGGERYFSVKES) [compound 15] | 185
16 | 16 (HLPSDQPLSVTKIS) [compound 16] | 173
17 | 17 (GFLGEEPYHFLAKR) [compound 17] | 167
18 | 18 (LRSTADAHYTLKKS) [compound 18] | 152
19 | 19 (ATPCSQPCAVVPKF) [compound 19] | 142
20 | 20 (QYAWEEPYYLEKKL) [compound 20] | 140
21 | 21 (HLPVEYPFYVFKNS) [compound 21] | 131
22 | 22 (RGSLEGPFKLGKTH) [compound 22] | 130
23 | 23 (QVSSQEPNFIVKNN) [compound 23] | 116
24 | 24 (HFSAYEQYYVLRNS) [compound 24] | 111
25 | 25 (YVIKYAPYYAVTRS) [compound 25] | 93
26 | 26 (HLPEEELYTIVRKT) [compound 26] | 85
27 | 27 (QDPCVWPYNGVKKC) [compound 27] | 79
28 | 28 (HVHWDATYYAVTNS) [compound 28] | 77
29 | 29 (QFPYDHKNYVVKYS) [compound 29] | 69
30 | 30 (RFHMVGPYNVATTS) [compound 30] | 68

Same assay, conditions: unique sequence count (relative enrichment); peptides overlapping between Nerve2 and Nerve3

Row | Substance | Count
31 | 31 (HLPWEGQLNIGNKS) [compound 31] | 357
32 | 32 (DDLWQDLYGVVKKS) [compound 32] | 106
33 | 33 (NLAWAESKFLLEKI) [compound 33] | 71
34 | 34 (QLRYQEHYYLGYNS) [compound 34] | 56
35 | 35 (YVPWQEPYYVQKNL) [compound 35] | 49
36 | 36 (LVPWDETHKVVQRH) [compound 36] | 14

Same assay, conditions: unique sequence count (relative enrichment); peptides overlapping between Nerve2 and Plated Nerve2

Row | Substance | Count
37 | 41 (HSYREEPYYFGKRS) [compound 41] | 632
38 | 42 (QHTWKEPYNGQKRT) [compound 42] | 577
39 | 43 (QLPMGGPYERVNNT) [compound 43] | 380
40 | 44 (SVPKVHPYYVVNNS) [compound 44] | 333
41 | 45 (QVPTGEPLYPVQKT) [compound 45] | 323
42 | 46 (QLPSYQAHDVMKVH) [compound 46] | 308
43 | 47 (QIPSQRPSSVGAIA) [compound 47] | 292
44 | 48 (QFPGDERYYLATST) [compound 48] | 283
45 | 49 (HVSSQEPYYVLRNS) [compound 49] | 252
46 | 50 (RLPSDDHNTFGTRS) [compound 50] | 249
47 | 51 (QLHGDELLSVVKNP) [compound 51] | 232
48 | 52 (ATEWEESYFHVKKF) [compound 52] | 223
49 | 53 (RVPWEQSSWVVKRS) [compound 53] | 220
50 | 54 (QIANKEPHTYVENS) [compound 54] | 213
51 | 55 (QIRSEVTHSVVRES) [compound 55] | 213
52 | 56 (QHTLNHPYSVVKTS) [compound 56] | 205
53 | 57 (QVPSHELYFRPKES) [compound 57] | 204
54 | 58 (EVPGGVPYYPMKKF) [compound 58] | 201
55 | 59 (HVSGGQWVHGQKNS) [compound 59] | 200
56 | 60 (HVPSKQMNSLAKKS) [compound 60] | 196
57 | 61 (QIHFGEPNYVVKKS) [compound 61] | 194
58 | 62 (QFPWEGSYYTAKQS) [compound 62] | 193

Row | Substance | Count
59 | 63 (QIPWGEAYQAEKIT) [compound 63] | 191
60 | 64 (VVPSNAQHLAPNMS) [compound 64] | 191
61 | 65 (HVAEAESYNVVKKT) [compound 65] | 187
62 | 66 (QIPCEGPYSGVQMC) [compound 66] | 186
63 | 67 (HITGGVPYPVVRDS) [compound 67] | 185
64 | 68 (HVLWEDSSYHVTHH) [compound 68] | 179
65 | 69 (HVTYDEQKYFVKKS) [compound 69] | 179
66 | 70 (QVPSVQPYYIGKNT) [compound 70] | 175
67 | 71 (QARFEQPYSGLRDS) [compound 71] | 167
68 | 72 (LIPSAYPHSLWSKS) [compound 72] | 166
69 | 73 (QLRSNEAYHVVKKS) [compound 73] | 166
70 | 74 (QTQMQEPKYGVSHS) [compound 74] | 163
71 | 75 (DVRWDEPYYVDEKI) [compound 75] | 161
72 | 76 (HVPRVEPYNVVTNY) [compound 76] | 158
73 | 77 (QFPGQALSFVHEKS) [compound 77] | 152
74 | 78 (HFPSKALNNTAKNT) [compound 78] | 151
75 | 79 (QFPPEQPYGLANKS) [compound 79] | 150
76 | 80 (HVPWAGRHYVAKHS) [compound 80] | 149
77 | 81 (RVAIDELYLIAHKS) [compound 81] | 147
78 | 82 (QIPEQQPYNVFKKS) [compound 82] | 142
79 | 83 (SIPGEDSLYAVTEH) [compound 83] | 142
80 | 84 (QCPSEQPNYVCKIF) [compound 84] | 140

Row | Substance | Count
81 | 85 (HGQTQEPSYVTVYY) [compound 85] | 139
82 | 86 (HVHWQVPSNIVRNS) [compound 86] | 139
83 | 87 (QLPWYEADYRMEYY) [compound 87] | 139
84 | 88 (QLPSQAQNYYVTAS) [compound 88] | 137
85 | 89 (QVTSEEHYFAVKKF) [compound 89] | 136
86 | 90 (TSLSGAPFHNANTF) [compound 90] | 134
87 | 91 (HDASIALYDPVLMS) [compound 91] | 133
88 | 92 (QLPGDVTYNLGHKS) [compound 92] | 133
89 | 93 (QPTWEQPYHVDRNS) [compound 93] | 131
90 | 94 (HIPFPGLYSNLDQS) [compound 94] | 127
91 | 95 (DHPWDVRHYAHKKS) [compound 95] | 126
92 | 96 (DVPWKESFNIVENS) [compound 96] | 126
93 | 97 (QFARTAPYYVQTEY) [compound 97] | 125
94 | 98 (QNPWQKPYTVMKTS) [compound 98] | 123
95 | 99 (HLSFEEPLYGVKKS) [compound 99] | 122
96 | 100 (QFPSGHRVYTGKMT) [compound 100] | 122
97 | 101 (YNLYEQPYSVLKRS) [compound 101] | 122
98 | 102 (HLPSQVTHYVITSF) [compound 102] | 115
99 | 103 (QVPSHEPFYLGKKY) [compound 103] | 114
100 | 104 (RVTQGSPVYGENNA) [compound 104] | 114
101 | 105 (QIPMEETYSLRKMS) [compound 105] | 113
102 | 106 (QIPWEAPSYGATIS) [compound 106] | 113

Same assay, conditions: unique sequence count (relative enrichment); peptides overlapping between Nerve3 and Plated Nerve 2

Row | Substance | Count
103 | 37 (HVALEQPYYAVKES) [compound 37] | 342
104 | 38 (QVQCKEQYYGVTNC) [compound 38] | 195
105 | 39 (QALYAEPAYVSKKF) [compound 39] | 19
106 | 40 (HVSMDERYYVVKKT) [compound 40] | 17
